Measured values taken from ChEMBL document CHEMBL3885881, “DrugMatrix”.

Species: Rattus norvegicus
Assay: DrugMatrix - Regimen: Daily Repeat
Format: toxicity, organism-based, Sprague-Dawley
Design: regimen Daily Repeat, gender Male, age 6-8 weeks
Settings: in vivo, po, 60 mg/kg, route oral GAVAGE, dose level High, vehicle 100 % WATER; for ABSOLUTE BASOPHIL / ABSOLUTE EOSINOPHIL / ABSOLUTE LYMPHOCYTE / ABSOLUTE MONOCYTE / ABSOLUTE SEGMENTED NEUTROPHIL / BASOPHIL / EOSINOPHIL / ERYTHROCYTE COUNT / HEMATOCRIT / HEMOGLOBIN / LEUKOCYTE COUNT / LYMPHOCYTE / MEAN CORPUSCULAR HEMOGLOBIN / MEAN CORPUSCULAR HEMOGLOBIN CONCENTRATION / MEAN CORPUSCULAR VOLUME / MONOCYTE / NEUTROPHIL / NUCLEATED RED BLOOD CELLS / PLATELET COUNT: tissue Blood; for ALANINE AMINOTRANSFERASE / ALBUMIN / ALKALINE PHOSPHATASE / ASPARTATE AMINOTRANSFERASE / BLOOD UREA NITROGEN / CARBON DIOXIDE / CHLORIDE / CHOLESTEROL / CREATININE / GLUCOSE / LACTATE DEHYDROGENASE / LIPASE / PHOSPHORUS / POTASSIUM / SODIUM / TOTAL BILIRUBIN / TOTAL PROTEIN / URIC ACID: tissue Plasma

Compound: Nc1ccc(O)c(N)c1 [2,4-DIAMINOPHENOL]
- ABSOLUTE BASOPHIL (120 h, time 5 day): 0 CELLS/uL
- ABSOLUTE EOSINOPHIL (120 h, time 5 day): 0 CELLS/uL
- ABSOLUTE LYMPHOCYTE (120 h, time 5 day): 5905 CELLS/uL
- ABSOLUTE MONOCYTE (120 h, time 5 day): 88.67 CELLS/uL
- ABSOLUTE SEGMENTED NEUTROPHIL (120 h, time 5 day): 839.67 CELLS/uL
- BASOPHIL (120 h, time 5 day): 0%
- EOSINOPHIL (120 h, time 5 day): 0%
- ERYTHROCYTE COUNT (120 h, time 5 day): 5.11 x10E6/uL
- HEMATOCRIT (120 h, time 5 day): 31.43%
- HEMOGLOBIN (120 h, time 5 day): 11.77 G/DL
- LEUKOCYTE COUNT (120 h, time 5 day): 6.83 x10E3/uL
- LYMPHOCYTE (120 h, time 5 day): 86.33%
- MEAN CORPUSCULAR HEMOGLOBIN (120 h, time 5 day): 23.1 pg
- MEAN CORPUSCULAR HEMOGLOBIN CONCENTRATION (120 h, time 5 day): 37.43 G/DL
- MEAN CORPUSCULAR VOLUME (120 h, time 5 day): 61.57 fL
- MONOCYTE (120 h, time 5 day): 1.33%
- NEUTROPHIL (120 h, time 5 day): 12.33%
- NUCLEATED RED BLOOD CELLS (120 h, time 5 day): 0 /100WBC
- PLATELET COUNT (120 h, time 5 day): 990.67 x10E3/uL
- ALANINE AMINOTRANSFERASE (120 h, time 5 day): 50.33 u/L
- ALBUMIN (120 h, time 5 day): 4.63 G/DL
- ALKALINE PHOSPHATASE (120 h, time 5 day): 303.67 u/L
- ASPARTATE AMINOTRANSFERASE (120 h, time 5 day): 73 u/L
- BLOOD UREA NITROGEN (120 h, time 5 day): 12.67 mg/dL
- CARBON DIOXIDE (120 h, time 5 day): 33 mmol/L
- CHLORIDE (120 h, time 5 day): 99.67 MEQ/L
- CHOLESTEROL (120 h, time 5 day): 71.67 mg/dL
- CREATININE (120 h, time 5 day): 0.15 mg/dL
- GLUCOSE (120 h, time 5 day): 135.33 mg/dL
- LACTATE DEHYDROGENASE (120 h, time 5 day): 84.67 u/L
- LIPASE (120 h, time 5 day): 8.67 u/L
- PHOSPHORUS (120 h, time 5 day): 12.63 mg/dL
- POTASSIUM (120 h, time 5 day): 6.25 MEQ/L
- SODIUM (120 h, time 5 day): 146.5 MEQ/L
- TOTAL BILIRUBIN (120 h, time 5 day): 0.23 mg/dL
- TOTAL PROTEIN (120 h, time 5 day): 6.5 G/DL
- URIC ACID (120 h, time 5 day): 0.67 mg/dL
- ABSOLUTE BASOPHIL ([…], time 14 day): 0 CELLS/uL
- ABSOLUTE EOSINOPHIL ([…], time 14 day): 124 CELLS/uL
- ABSOLUTE LYMPHOCYTE ([…], time 14 day): 13347.2 CELLS/uL
- ABSOLUTE MONOCYTE ([…], time 14 day): 291 CELLS/uL
- ABSOLUTE SEGMENTED NEUTROPHIL ([…], time 14 day): 2297.8 CELLS/uL
- BASOPHIL ([…], time 14 day): 0%
- EOSINOPHIL ([…], time 14 day): 0.8%
- ERYTHROCYTE COUNT ([…], time 14 day): 5.92 x10E6/uL
- HEMATOCRIT ([…], time 14 day): 34.56%
- HEMOGLOBIN ([…], time 14 day): 13 G/DL
- LEUKOCYTE COUNT ([…], time 14 day): 16.06 x10E3/uL
- LYMPHOCYTE ([…], time 14 day): 83%
- MEAN CORPUSCULAR HEMOGLOBIN ([…], time 14 day): 22.04 pg
- MEAN CORPUSCULAR HEMOGLOBIN CONCENTRATION ([…], time 14 day): 37.6 G/DL
- MEAN CORPUSCULAR VOLUME ([…], time 14 day): 58.5 fL
- MONOCYTE ([…], time 14 day): 1.8%
- NEUTROPHIL ([…], time 14 day): 14.4%
- NUCLEATED RED BLOOD CELLS ([…], time 14 day): 0 /100WBC
- PLATELET COUNT ([…], time 14 day): 944.4 x10E3/uL
- ALANINE AMINOTRANSFERASE ([…], time 14 day): 40.4 u/L
- ALBUMIN ([…], time 14 day): 4.32 G/DL
- ALKALINE PHOSPHATASE ([…], time 14 day): 271.4 u/L
- ASPARTATE AMINOTRANSFERASE ([…], time 14 day): 76.6 u/L
- BLOOD UREA NITROGEN ([…], time 14 day): 13.6 mg/dL
- CARBON DIOXIDE ([…], time 14 day): 30.4 mmol/L
- CHLORIDE ([…], time 14 day): 101.8 MEQ/L
- CHOLESTEROL ([…], time 14 day): 67.4 mg/dL
- CREATININE ([…], time 14 day): 0.15 mg/dL
- GLUCOSE ([…], time 14 day): 150 mg/dL
- LACTATE DEHYDROGENASE ([…], time 14 day): 271.8 u/L
- LIPASE ([…], time 14 day): 7.8 u/L
- PHOSPHORUS ([…], time 14 day): 13.62 mg/dL
- POTASSIUM ([…], time 14 day): 6.71 MEQ/L
- SODIUM ([…], time 14 day): 145.8 MEQ/L
- TOTAL BILIRUBIN ([…], time 14 day): 0.14 mg/dL
- TOTAL PROTEIN ([…], time 14 day): 6.06 G/DL
- URIC ACID ([…], time 14 day): 1.14 mg/dL
